Laboratory results taken from ChEMBL document CHEMBL4665699, “Cytotoxic Diterpenoids from Caryopteris aureoglandulosa” (J Nat Prod, 2020).

Legend:
Assay type in all cases: functional, cell-based
[1] = test system: NCI-H460; test: Cytotoxicity against human NCI-H460 cells assessed as reduction in cell viability after 48 hrs by CCK8 assay; conditions: NCI-H460, 48 h
[2] = test system: A549; test: Cytotoxicity against human A549 cells assessed as reduction in cell viability after 48 hrs by CCK8 assay; conditions: A549, 48 h
[3] = Cytotoxicity against human 95-D cells assessed as reduction in cell viability after 48 hrs by CCK8 assay
[4] = test system: NCI-H1650; test: Cytotoxicity against human NCI-H1650 cells assessed as reduction in cell viability after 48 hrs by CCK8 assay; conditions: NCI-H1650, 48 h
[5] = test system: PC-9; test: Cytotoxicity against human PC-9 cells assessed as reduction in cell viability after 48 hrs by CCK8 assay; conditions: PC-9, 48 h

| SMILES | IC50 [1] [µM] | IC50 [2] [µM] | IC50 [3] [µM] | IC50 [4] [µM] | IC50 [5] [µM] |
| --- | --- | --- | --- | --- | --- |
| C[C@@]12CC[C@@H](OC1=O)c1c2cc(O)c2c1C(=O)c1oc(CO)cc1C2=O | > 10 | 4.8 | 3.9 | 1.6 | > 10 |
| Cc1cc2c(o1)C(=O)c1cc3c(c(O)c1C2=O)C(=O)CCCC3(C)C | > 10 | 10.4 | > 10 | 5.4 | 8.2 |
| O=c1[nH]cc(F)c(=O)[nH]1 [FLUOROURACIL] | 9.9 | > 10 | > 10 | > 10 | > 10 |
